Measurements reported in ChEMBL document CHEMBL1201862, “PubChem BioAssay data set” (2004).
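How tested: cells in 96-well plates exposed to compound for 48 hours at five concentrations. Here, GI50 denotes the concentration required for 50% inhibition of growth.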 Calls of active or inactive are those of the source. No stated cut-off is given here; in the data, active = GI50 up to about 1.1 µM and inactive = higher.

How the values were obtained:
Assay in all cases: growth of human tumour cells (NCI), 48 h
UACC-62 = tested on: UACC-62
HOP-92 = tested on: HOP-92
TK-10 = tested on: TK-10
A549 = tested on: A549
SW-620 = tested on: SW-620
DU-145 = tested on: DU-145
SNB-19 = tested on: SNB-19
OVCAR-3 = tested on: OVCAR-3
SR = tested on: SR
SK-MEL-2 = tested on: SK-MEL-2
RPMI-8226 = tested on: RPMI-8226
MDA-MB-435 = tested on: MDA-MB-435
MDA-MB-231 = tested on: MDA-MB-231
CCRF-CEM = tested on: CCRF-CEM
UACC-257 = tested on: UACC-257
A498 = tested on: A498
HL-60 = tested on: HL-60
T47D = tested on: T47D
NCI/ADR-RES = tested on: NCI/ADR-RES
RXF 393 = tested on: RXF 393

Measured: GI50

CO[C@](C(=O)OC[C@H]1[C@@H](COC(C)=O)[C@@H]2O[C@H]1c1cc3c(cc12)OCO3)(c1ccccc1)C(F)(F)F
inactive: UACC-62 19.6 µM | HOP-92 34 µM | TK-10 38.3 µM | A549 17.5 µM | SW-620 95.9 µM | DU-145 34.9 µM | SNB-19 50.4 µM | OVCAR-3 27 µM | SR 21.2 µM | SK-MEL-2 28.6 µM | RPMI-8226 3.68 µM | MDA-MB-435 38.5 µM | MDA-MB-231 30.8 µM | CCRF-CEM 7.19 µM | UACC-257 40.5 µM | A498 28.5 µM

COc1cc(S(=O)(=O)Nc2ccc(-c3csc(N4C(=O)C(Cl)C4c4ccccc4)n3)cc2)ccc1Cl (centres undefined)
inactive: UACC-62 22.9 µM | HOP-92 18.2 µM | TK-10 > 100 µM | A549 > 100 µM | SW-620 50.4 µM | DU-145 16 µM | HL-60 54.6 µM | T47D 28.4 µM | SNB-19 > 100 µM | NCI/ADR-RES > 100 µM | OVCAR-3 > 100 µM | SR 3.06 µM | RXF 393 10.7 µM | SK-MEL-2 > 100 µM | RPMI-8226 31.4 µM | MDA-MB-435 38.5 µM | CCRF-CEM 3.37 µM | UACC-257 8.45 µM | A498 25.9 µM

COC(=O)C(C(=O)C(=O)Nc1c(Cl)cc([N+](=O)[O-])cc1Cl)c1csc(-n2nc(C3=CCCCC3)cc2-c2ccccc2)n1 (centres undefined)
inactive: UACC-62 65.8 µM | HOP-92 10.1 µM | TK-10 64.9 µM | A549 64.7 µM | SW-620 71 µM | HL-60 40 µM | SNB-19 37.3 µM | OVCAR-3 59 µM | SR 22.5 µM | RXF 393 63.7 µM | SK-MEL-2 > 100 µM | RPMI-8226 27.9 µM | CCRF-CEM 73.5 µM | UACC-257 46.6 µM | A498 32.9 µM

O=C1CSC2(CC(/C=C/C=C/c3ccccc3)=NN2c2cccc(S(=O)(=O)O)c2)N1c1nc2ccccc2s1 (centres undefined)
inactive: UACC-62 35.2 µM | HOP-92 34.8 µM | TK-10 34.5 µM | A549 50.8 µM | SW-620 56.2 µM | HL-60 4.24 µM | T47D 23.4 µM | SNB-19 36.4 µM | NCI/ADR-RES 51.1 µM | SR 21.2 µM | RXF 393 > 100 µM | SK-MEL-2 26 µM | RPMI-8226 21.2 µM | MDA-MB-435 21.6 µM | MDA-MB-231 31.3 µM | CCRF-CEM 20.8 µM | UACC-257 40.6 µM | A498 26.4 µM

COc1c2ccoc2c(S(=O)(=O)Nc2ccc(Cl)cc2)c2oc(C)cc(=O)c12
inactive: UACC-62 > 100 µM | HOP-92 41.9 µM | A549 > 100 µM | SW-620 > 100 µM | HL-60 23.9 µM | SNB-19 99.1 µM | NCI/ADR-RES > 100 µM | OVCAR-3 > 100 µM | RXF 393 25.1 µM | SK-MEL-2 > 76.2 µM | RPMI-8226 > 100 µM | CCRF-CEM > 100 µM | UACC-257 > 100 µM | A498 54.6 µM

O=C(C#Cc1ccccc1)N1CCCCC1
inactive: UACC-62 > 100 µM | HOP-92 > 100 µM | TK-10 > 100 µM | A549 76.9 µM | SW-620 97.9 µM | DU-145 55.8 µM | HL-60 21.9 µM | T47D 52.6 µM | SNB-19 > 100 µM | OVCAR-3 81.7 µM | SR 80.4 µM | SK-MEL-2 > 100 µM | RPMI-8226 62.5 µM | MDA-MB-435 63.5 µM | MDA-MB-231 72.3 µM | CCRF-CEM 50.8 µM | UACC-257 > 100 µM | A498 > 100 µM

CCCCC1(O)CC2CC1C(C)C2(C)C (centres undefined)
inactive: UACC-62 > 100 µM | TK-10 > 100 µM | A549 > 100 µM | SW-620 > 100 µM | DU-145 > 100 µM | HL-60 21.5 µM | SNB-19 > 100 µM | NCI/ADR-RES > 100 µM | OVCAR-3 > 100 µM | SR 44.8 µM | RXF 393 > 100 µM | RPMI-8226 54.6 µM | MDA-MB-435 > 100 µM | MDA-MB-231 > 100 µM | CCRF-CEM 93.5 µM | UACC-257 > 100 µM

CCOc1ccc(NC(=O)C(=O)Nn2c(N)nnc2N)cc1
inactive: UACC-62 > 100 µM | HOP-92 > 100 µM | TK-10 > 100 µM | A549 > 100 µM | SW-620 > 100 µM | HL-60 > 100 µM | T47D > 100 µM | NCI/ADR-RES > 100 µM | OVCAR-3 > 100 µM | SR > 100 µM | RXF 393 > 100 µM | SK-MEL-2 > 100 µM | RPMI-8226 > 100 µM | MDA-MB-435 > 100 µM | MDA-MB-231 > 100 µM | CCRF-CEM > 100 µM | UACC-257 > 100 µM | A498 > 100 µM

CN(C)CC(O)c1ccc(Cl)c2ccccc12 (centres undefined)
inactive: UACC-62 17.5 µM | HOP-92 14.2 µM | TK-10 34.3 µM | A549 > 77.6 µM | SW-620 > 83.9 µM | DU-145 > 96.8 µM | HL-60 9.12 µM | T47D 21 µM | SNB-19 > 70 µM | NCI/ADR-RES 81.5 µM | OVCAR-3 > 91 µM | RXF 393 22.1 µM | SK-MEL-2 19.3 µM | RPMI-8226 3.08 µM | MDA-MB-435 21.6 µM | MDA-MB-231 27.5 µM | CCRF-CEM 20 µM | UACC-257 20.9 µM | A498 22.4 µM

CN(C)/N=N/c1ccc2[nH]c(=O)[nH]c2c1
inactive: UACC-62 > 100 µM | TK-10 > 100 µM | A549 > 100 µM | SW-620 > 100 µM | DU-145 > 100 µM | HL-60 19.2 µM | T47D > 100 µM | SNB-19 > 100 µM | NCI/ADR-RES > 100 µM | OVCAR-3 > 100 µM | RXF 393 > 100 µM | SK-MEL-2 > 100 µM | RPMI-8226 > 100 µM | MDA-MB-435 > 100 µM | MDA-MB-231 > 100 µM | CCRF-CEM 62.2 µM | UACC-257 > 100 µM | A498 > 100 µM

CS(=O)(=O)c1ccc2nc(-c3ccc(O)cc3)sc2c1
inactive: UACC-62 17.9 µM | TK-10 16.3 µM | A549 16.4 µM | SW-620 20.7 µM | DU-145 15.7 µM | HL-60 21.2 µM | SNB-19 17.4 µM | NCI/ADR-RES 13.8 µM | OVCAR-3 16.6 µM | SR 10.1 µM | RXF 393 16.9 µM | SK-MEL-2 20 µM | RPMI-8226 15.7 µM | MDA-MB-435 18 µM | MDA-MB-231 20.6 µM | CCRF-CEM 25.2 µM | UACC-257 19.6 µM | A498 16.4 µM
